From patent US4198506A, “2-Carboxyalkyl-2,3-dihydro-6-mercapto-s-triazolo[4,3-b]-pyridazin-3-ones” (Bristol-Myers Company, priority 1979, dated 1980)
≈ marks a conversion by molar mass, not a printed value. Where “and” joins values, the source holds several entries; their conditions need not be identical. Equal entries are not always repeated. Where two headings read alike, the source gives them in different places.

How the values were obtained:
Enterob. cloacae = assay: In vitro antibacterial activity (Steers' agar dilution MIC); type: cell-based
Enterobacter (sensitive) = assay: In vitro activity (geometric mean MIC, serial dilution); type: cell-based; conditions: 3 strains, Mueller-Hinton agar, inoculum 10^4 dilution, MIC cutoff 200 mcg./ml., read-out: Geometric Mean MIC
[1] = test system: Proteus (indole +, cephalosporinase +); assay: as above; type: cell-based; conditions: 5 strains; Mueller-Hinton agar, inoculum 10^4 dilution; MIC cutoff 200 mcg./ml.; read-out: Geometric Mean MIC
Pr. morganii = assay: In vitro antibacterial activity (Steers' agar dilution MIC); type: cell-based; conditions: Morganella morganii
E. coli = assay: as above; type: cell-based; conditions: Escherichia coli
Excerpt: (§1) In vitro Antibacterial Activity of BB-S493 Compared with
(§2) BB-S479 and Cefamandole (Determined by Steers' Agar Dilu-
(§3) tion Method on Mueller-Hinton Agar Plate)
(§4) In vitro antibacterial activity of BB-S 525 compared with
(§5) BB-S 479 and cefamandole (determined by Steers' agar dilution
(§6) method on Mueller-Hinton agar plate)

Kl. pneumoniae = assay: as above; type: cell-based; conditions: Klebsiella pneumoniae
Excerpt: as §1, §2, §3, §4, §5, §6

Sal. typhosa = assay: as above; type: cell-based
Excerpt: as §1, §2, §3, §4, §5, §6

Shig. flexneri = assay: as above; type: cell-based
Excerpt: as §1, §2, §3, §4, §5, §6

Shig. sonnei = assay: as above; type: cell-based; conditions: Shigella sonnei
Excerpt: as §1, §2, §3, §4, §5, §6

S. aureus = assay: as above; type: cell-based; conditions: Staphylococcus aureus
Excerpt: as §1, §2, §3, §4, §5, §6

E. coli (sensitive) = assay: In vitro activity (geometric mean MIC, serial dilution); type: cell-based; conditions: Escherichia coli, read-out: Geometric Mean MIC
[2] = test system: Enterobacter (Cephalosporinase +); assay: as above; type: cell-based; conditions: 7 strains, Mueller-Hinton agar, inoculum 10^4 dilution, MIC cutoff 200 mcg./ml.
B. anthracis = assay: microbe, parasite or virus in culture; type: cell-based; conditions: Bacillus anthracis
Providencia sp. = assay: In vitro activity (geometric mean MIC, serial dilution); type: cell-based; conditions: read-out: Geometric Mean MIC
S. aureus (sensitive) = assay: as above; type: cell-based; conditions: Staphylococcus aureus, read-out: Geometric Mean MIC
[3] = test system: E. coli (Penicillinase +); assay: as above; type: cell-based; conditions: Escherichia coli; 7 strains; Mueller-Hinton agar, inoculum 10^4 dilution; MIC cutoff 200 mcg./ml.; read-out: Geometric Mean MIC
Pr. mirabilis = assay: In vitro antibacterial activity (Steers' agar dilution MIC); type: cell-based; conditions: Proteus mirabilis
Proteus (indole +) = assay: In vitro activity (geometric mean MIC, serial dilution); type: cell-based; conditions: read-out: Geometric Mean MIC
D. pneumoniae = assay: as above; type: cell-based; conditions: Streptococcus pneumoniae; 9 strains; Mueller-Hinton agar, inoculum 10^4 dilution; MIC cutoff 200 mcg./ml.
Shig. dysenteriae = assay: In vitro antibacterial activity (Steers' agar dilution MIC); type: cell-based; conditions: Shigella dysenteriae
Klebsiella sp. = assay: In vitro activity (geometric mean MIC, serial dilution); type: cell-based; conditions: 12 strains, Mueller-Hinton agar, inoculum 10^4 dilution, MIC cutoff 200 mcg./ml., read-out: Geometric Mean MIC
S. marcescens = assay: as above; type: cell-based; conditions: Serratia marcescens; 16 strains; Mueller-Hinton agar, inoculum 10^4 dilution; MIC cutoff 200 mcg./ml.; read-out: Geometric Mean MIC
[4] = test system: S. aureus penicillinase+); assay: as above; type: cell-based; conditions: Staphylococcus aureus, read-out: Geometric Mean MIC
S. aureus Smith = assay: In vivo activity (Mice, sc); conditions: several determinations listed
Excerpt: |In vivo Activity of BB-[…] and Related Compounds (Mice, sc) | (PD50 (mgm./kg.)

Ps. aeruginosa = assay: In vitro antibacterial activity (Steers' agar dilution MIC); type: cell-based

`Cn1nnnc1SCC1=C(C(=O)O)N2C(=O)[C@@H](NC(=O)[C@H](O)c3ccccc3)[C@H]2SC1` [Cefamandole, reference compound] was tested, and the MIC (Enterob. cloacae; table 2 (BB-S493), Enterob. cloacae A9656) was 3.1 µg/mL (≈ 6.7 µM), the MIC (Enterob. cloacae; table 4 (BB-S 525), Enterob. cloacae) was 1.6 µg/mL (≈ 3.46 µM) and the MIC (Enterobacter (sensitive)) was 1 µg/mL (≈ 2.16 µM). For the same compound, the MIC [1] was 3.6 µg/mL (≈ 7.78 µM), the MIC (Pr. morganii; table 2 (BB-S493), Pr. morganii A9553, read-out: MIC) was greater than 100 µg/mL and the MIC (Pr. morganii; table 2 (BB-S493), Pr. morganii A20031) was 0.8 µg/mL (≈ 1.73 µM). The MIC (Pr. morganii; table 4 (BB-S 525), Pr. morganii, 1st line) was 3.1 µg/mL (≈ 6.7 µM), the MIC (Pr. morganii; table 4 (BB-S 525), Pr. morganii, 2nd line) was 0.8 µg/mL (≈ 1.73 µM) and the MIC (E. coli; ATCC8739, table 2 (BB-S493), E. coli ATCC 8739, read-out: MIC) was 0.05 µg/mL (≈ 0.108 µM). It also gave an MIC (E. coli; ATCC8739, table 4 (BB-S 525), E. coli ATCC 8739) of 6.3 µg/mL (≈ 13.6 µM), an MIC (E. coli; table 2 (BB-S493), E. coli A9660, read-out: MIC) of 0.1 µg/mL (≈ 0.216 µM) and an MIC (E. coli; table 2 (BB-S493), E. coli A15147, read-out: MIC) of 3.1 µg/mL (≈ 6.7 µM). It also gave an MIC (E. coli; table 2 (BB-S493), E. coli A15810, read-out: MIC) of 0.2 µg/mL (≈ 0.432 µM), an MIC (E. coli; table 2 (BB-S493), E. coli BX-1373, read-out: MIC) of 0.4 µg/mL (≈ 0.865 µM) and an MIC (E. coli; table 2 (BB-S493), E. coli Juhl A15119, read-out: MIC) of 0.4 µg/mL (≈ 0.865 µM). The MIC (E. coli; table 2 (BB-S493), E. coli NIHJ, read-out: MIC) was 0.025 µg/mL (≈ 0.0541 µM), the MIC (E. coli; table 4 (BB-S 525), E. coli BX-1373, read-out: MIC) was 0.2 µg/mL (≈ 0.432 µM) and the MIC (E. coli; table 4 (BB-S 525), E. coli Juhl, read-out: MIC) was 0.4 µg/mL (≈ 0.865 µM). It also gave an MIC (E. coli; table 4 (BB-S 525), E. coli NIHJ, read-out: MIC) of 0.1 µg/mL (≈ 0.216 µM), an MIC (E. coli; table 4 (BB-S 525), E. coli, strain not given, 1st line, read-out: MIC) of 0.1 µg/mL (≈ 0.216 µM) and an MIC (E. coli; table 4 (BB-S 525), E. coli, strain not given, 2nd line, read-out: MIC) of 0.05 µg/mL (≈ 0.108 µM). For the same compound, the MIC (E. coli; table 4 (BB-S 525), E. coli, strain not given, 3rd line, read-out: MIC) was 1.6 µg/mL (≈ 3.46 µM), the MIC (Kl. pneumoniae; table 2 (BB-S493), Kl. pneumoniae A9678) was 1.6 µg/mL (≈ 3.46 µM) and the MIC (Kl. pneumoniae; table 2 (BB-S493), Kl. pneumoniae A9867) was 0.8 µg/mL (≈ 1.73 µM). For the same compound, the MIC (Kl. pneumoniae; table 2 (BB-S493), Kl. pneumoniae A9977) was 0.4 µg/mL (≈ 0.865 µM), the MIC (Kl. pneumoniae; table 2 (BB-S493), Kl. pneumoniae A15130) was 0.4 µg/mL (≈ 0.865 µM) and the MIC (Kl. pneumoniae; table 4 (BB-S 525), Kl. pneumoniae, 1st line) was 3.1 µg/mL (≈ 6.7 µM). For the same compound, the MIC (Kl. pneumoniae; table 4 (BB-S 525), Kl. pneumoniae, 2nd line) was 0.2 µg/mL (≈ 0.432 µM), the MIC (Kl. pneumoniae; table 4 (BB-S 525), Kl. pneumoniae, 3rd line) was 0.8 µg/mL (≈ 1.73 µM) and the MIC (Kl. pneumoniae; table 4 (BB-S 525), Kl. pnuemoniae, 4th line) was 0.8 µg/mL (≈ 1.73 µM). For the same compound, the MIC (Sal. typhosa; table 2 (BB-S493), Sal. typhosa A9498) was 0.1 µg/mL (≈ 0.216 µM), the MIC (Sal. typhosa; table 4 (BB-S 525), Sal. typhosa) was 0.1 µg/mL (≈ 0.216 µM) and the MIC (Shig. flexneri; Shigella flexneri, table 2 (BB-S493), Shig. flexneri A9684, read-out: MIC) was 3.1 µg/mL (≈ 6.7 µM). The MIC (Shig. flexneri; table 4 (BB-S 525), Shig. flexneri) was 3.1 µg/mL (≈ 6.7 µM), the MIC (Shig. sonnei; table 2 (BB-S493), Shig. sonnei A9516) was 0.05 µg/mL (≈ 0.108 µM) and the MIC (Shig. sonnei; table 4 (BB-S 525), Shig. sonnei) was 0.2 µg/mL (≈ 0.432 µM). The MIC (S. aureus; table 2 (BB-S493), S. aureus A9497) was 0.05 µg/mL (≈ 0.108 µM), the MIC (S. aureus; table 2 (BB-S493), S. aureus BX-1633 A9606) was 0.2 µg/mL (≈ 0.432 µM) and the MIC (S. aureus; table 2 (BB-S493), S. aureus Smith A9537) was 0.1 µg/mL (≈ 0.216 µM). It also gave an MIC (S. aureus; table 4 (BB-S 525), S. aureus (strain not given)) of 0.05 µg/mL (≈ 0.108 µM), an MIC (S. aureus; table 4 (BB-S 525), S. aureus BX-1633) of 0.2 µg/mL (≈ 0.432 µM) and an MIC (S. aureus; table 4 (BB-S 525), S. aureus Smith) of 0.2 µg/mL (≈ 0.432 µM). It also gave an MIC (E. coli (sensitive)) of 0.3 µg/mL (≈ 0.649 µM), an MIC [2] of 4.7 µg/mL (≈ 10.2 µM) and an MIC (B. anthracis; table 2 (BB-S493), B. anthracis A9504) of 0.2 µg/mL (≈ 0.432 µM). For the same compound, the MIC (B. anthracis; table 4 (BB-S 525), B. anthracis) was 0.05 µg/mL (≈ 0.108 µM), the MIC (Providencia sp.) was 0.7 µg/mL (≈ 1.51 µM) and the MIC (S. aureus (sensitive)) was 0.1 µg/mL (≈ 0.216 µM). For the same compound, the MIC [3] was 5.7 µg/mL (≈ 12.3 µM), the MIC (Pr. mirabilis; table 2 (BB-S493), Pr. mirabilis A9554) was 0.8 µg/mL (≈ 1.73 µM) and the MIC (Pr. mirabilis; table 2 (BB-S493), Pr. mirabilis A9900) was 0.8 µg/mL (≈ 1.73 µM). It also gave an MIC (Pr. mirabilis; table 4 (BB-S 525), Pr. mirabilis, 1st line) of 0.4 µg/mL (≈ 0.865 µM), an MIC (Pr. mirabilis; table 4 (BB-S 525), Pr. mirabilis, 2nd line, read-out: MIC) of 0.2 µg/mL (≈ 0.432 µM) and an MIC (Proteus (indole +)) of 0.5 µg/mL (≈ 1.08 µM). For the same compound, the MIC (D. pneumoniae) was 0.2 µg/mL (≈ 0.432 µM), the MIC (Shig. dysenteriae; table 2 (BB-S493), Shig dysenteriae) was 0.2 µg/mL (≈ 0.432 µM) and the MIC (Shig. dysenteriae; table 4 (BB-S 525), Shig. dysenteriae) was 0.1 µg/mL (≈ 0.216 µM). It also gave an MIC (Klebsiella sp.) of 2.4 µg/mL (≈ 5.19 µM), an MIC (S. marcescens) of 34 µg/mL (≈ 73.5 µM) and an MIC [4] of 0.4 µg/mL (≈ 0.865 µM). For the same compound, the ED50 (S. aureus Smith; Staphylococcus aureus, read-out: PD50) was 0.93 mg/kg, the PD50 (S. aureus Smith) was 0.74 mgm./kg. and 0.6 mgm./kg. and 0.8 mgm./kg and the MIC (Ps. aeruginosa; Pseudomonas aeruginosa, table 2 (BB-S493), Ps. aeruginosa A9843, read-out: MIC) was greater than 100 µg/mL. It also gave an MIC (Ps. aeruginosa; table 2 (BB-S493), Ps. aerugionsa A9930) greater than 100 µg/mL, an MIC (Ps. aeruginosa; table 4 (BB-S 525), Ps. aeruginosa, 1st line) greater than 100 µg/mL and an MIC (Ps. aeruginosa; table 4 (BB-S 525), Ps. aeruginosa, 2nd line) greater than 100 µg/mL.
